Assay results: patent US7968720B2, “Secondary amines as renin inhibitors” (Actelion Pharmaceuticals Ltd., priority 2006, dated 2011)

Target: T1, recombinant human renin (Homo sapiens, UniProt P00797)
T1 sequence (P00797 67-406): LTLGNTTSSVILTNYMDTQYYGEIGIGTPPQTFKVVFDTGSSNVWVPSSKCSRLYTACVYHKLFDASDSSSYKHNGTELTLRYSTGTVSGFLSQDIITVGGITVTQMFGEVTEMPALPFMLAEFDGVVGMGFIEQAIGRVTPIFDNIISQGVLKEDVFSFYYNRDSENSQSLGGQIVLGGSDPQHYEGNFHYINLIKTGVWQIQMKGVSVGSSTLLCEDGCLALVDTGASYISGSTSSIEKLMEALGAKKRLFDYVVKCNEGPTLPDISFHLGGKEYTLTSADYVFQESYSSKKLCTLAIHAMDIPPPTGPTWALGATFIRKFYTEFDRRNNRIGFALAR
Experiment: Primary renin inhibition assay: IC50 in buffer, 384 well MTP (AngI measured by EIA)
Type: biochemical
Settings: human tetradecapeptide (1-14) substrate, incubated at 37° C. for 3 h, AngI quantified by EIA
Method: 1. Enzyme Immuno Assay (EIA) to Estimate AngI Accumulation and Renin Inhibition
1.1 Preparation of AngI-BSA Conjugate
1.3 mg (1 μmol) of AngI [1-10 (Bachem, H-1680)] and 17 mg (0.26 μmol) of BSA (Fluka, 05475) were dissolved in 4 mL of 0.1M phosphate buffer, pH 7.4, after which 2 mL of a 1:100 dilution of glutaraldehyde in H2O (Sigma G-5882) was added dropwise. The mixture was incubated overnight at 4° C., then dialyzed against 2 liters of 0.9% NaCl, twice for 4 h at rt, followed by dialysis against 2 liters of PBS 1× overnight at rt. The solution was then filtered with a Syringe filter, 0.45 μm (Nalgene, Cat. No. 194-2545). The conjugate can be stored in polypropylene tubes in 0.05% sodium azide at 4° C. for at least 12 months.
1.2 Preparation of BSA-AngI Coated MTP
Microtiter plates (MPT384, MaxiSorp™, Nunc) were incubated overnight at 4° C. with 80 μl of AngI (1-10)/BSA conjugate, diluted 1:100'000 in PBS 1× in a teflon beaker (exact dilution dependent on batch of conjugate), emptied, filled with 90 μl of blocking solution [0.5% BSA (Sigma A-2153) in PBS 1×, 0.02% NaN3], and incubated for at least 2 h at rt, or overnight at 4° C. 96 well MTP (MaxiSorp™, Nunc) were coated with 200 μl conjugate and blocked with 250 μl blocking solution as above, except that the blocking solution contained 3% BSA. The plates can be stored in blocking solution at 4° C. for 1 month.
1.3 AngI-EIA in 384 Well MTP
The AngI (1-10)/BSA coated MTP were washed 3 times with wash buffer (PBS 1×, 0.01% Tween 20) and filled with 75 μl of primary antibody solution (anti-AngI antiserum, pre-diluted 1:10 in horse serum), diluted to a final concentration of 1:100'000 in assay buffer (PBS 1×, 1 mM EDTA, 0.1% BSA, pH 7.4). 5 μl of the renin reaction (or standards in assay buffer) (see below) were added to the primary antibody solution and the plates were incubated overnight at 4° C. After the incubation the plates were washed 3 times with wash buffer and incubated with secondary antibody [anti-rabbit IgG, linked to horseradish peroxidase (Amersham Bioscience, NA 934V), diluted 1:2'000 in wash buffer] for 2 h at rt. The plates were washed 3 times with wash buffer and then incubated for 1 h at rt with substrate solution [1.89 mM ABTS (2,2′-azino-di-(3-ethyl-benzthiazolinsulfonate)] (Roche Diagnostics, 102 946) and 2.36 mM H2O2 [30%, (Fluka, 95300] in substrate buffer (0.1M sodium acetate, 0.05M sodium dihydrogen phosphate, pH 4.2). The OD of the plate was read at 405 nm in a microplate reader (FLUOStar Optima from BMG). The production of AngI during the renin reaction was quantified by comparing the OD of the sample with the OD of a standard curve of AngI(1-10), measured in parallel.
2. Primary Renin Inhibition Assay: IC50 in Buffer, 384 Well MTP
The renin assay was adapted from an assay described before (Fischli W. et al., Hypertension, 1991, 18:22-31) and consists of two steps: in the first step, recombinant human renin is incubated with its substrate (commercial human tetradecapeptide renin substrate) to create the product Angiotensin I (AngI). In the second step, the accumulated AngI is measured by an immunological assay (enzyme immuno assay, EIA). The detailed description of this assay is found below. The EIA is very sensitive and well suited for renin activity measurements in buffer or in plasma. Due to the low concentration of renin used in this assay (2 fmol per assay tube or 10 pM) it is possible to measure inhibitor affinities in this primary assay down to low pM concentration.
Recombinant human renin (3 pg/μl) in assay buffer (PBS 1×, 1 mM EDTA, 0.1% BSA, pH 7.4), human tetradecapeptide (1-14) substrate (Bachem, M-1120) [5 μM in 10 mM HCl], hydroxyquinoline sulfate (Fluka, 55100) [30 mM in H2O] and assay buffer were premixed at 4° C. at a ratio of 100:30:10:145. 47.5 μl per well of this premix was transferred into polypropylene plates (MTP384, Nunc). […]

In the case of `Cc1cc(Cl)c(O[C@@H]2CCN(c3ccc([C@H]4CCNC[C@@H]4C(=O)N(Cc4cc(CNC(=O)C5CC5)ccc4Cl)C4CC4)cn3)C2)c(Cl)c1` [Example 93, (3′R,4′S)-6-[(R)-3-(2,6-Dichloro-4-methyl-phenoxy)-pyrrolidin-1-yl]-1′,2′,3′,4′,5′,6′-hexahydro-[3,4′]bipyridinyl-3′-carboxylic acid {2-chloro-5-[(cyclopropanecarbonyl-amino)-methyl]-benzyl}-cyclopropyl-amide], the IC50 is reported as 0.38 nM.
`COCCCc1ccc(Cl)c(CN(C(=O)C2=C(c3ccc(OCCOc4c(Cl)cc(C)cc4Cl)cc3)C[C@@H]3CNC[C@H]2N3)C2CC2)c1` [Example 4, (1R,5S)-7-{4-[2-(2,6-Dichloro-4-methyl-phenoxy)-ethoxy]-phenyl}-3,9-diaza-bicyclo[3.3.1]non-6-ene-6-carboxylic acid [2-chloro-5-(3-methoxy-propyl)-benzyl]-cyclopropyl-amide] was tested, and the IC50 was 0.2 nM.
